Here are results for six compounds from patent publication US12427192B2, “Water soluble adjuvant and composition containing same” (Sumitomo Pharma Co., Ltd., priority 2019, dated 2025).

Read-outs that look alike come from different tables or passages of the source.

In assay [1] the target is T1, human TLR7 (Homo sapiens, UniProt Q9NYK1).
T1 construct: expresses full-length human TLR7 and secretory alkaline phosphatase (SEAP) reporter gene; host or cells: HEK293 (TLR7/NF-κB/SEAPorter)
T1 sequence (Q9NYK1 27-1049): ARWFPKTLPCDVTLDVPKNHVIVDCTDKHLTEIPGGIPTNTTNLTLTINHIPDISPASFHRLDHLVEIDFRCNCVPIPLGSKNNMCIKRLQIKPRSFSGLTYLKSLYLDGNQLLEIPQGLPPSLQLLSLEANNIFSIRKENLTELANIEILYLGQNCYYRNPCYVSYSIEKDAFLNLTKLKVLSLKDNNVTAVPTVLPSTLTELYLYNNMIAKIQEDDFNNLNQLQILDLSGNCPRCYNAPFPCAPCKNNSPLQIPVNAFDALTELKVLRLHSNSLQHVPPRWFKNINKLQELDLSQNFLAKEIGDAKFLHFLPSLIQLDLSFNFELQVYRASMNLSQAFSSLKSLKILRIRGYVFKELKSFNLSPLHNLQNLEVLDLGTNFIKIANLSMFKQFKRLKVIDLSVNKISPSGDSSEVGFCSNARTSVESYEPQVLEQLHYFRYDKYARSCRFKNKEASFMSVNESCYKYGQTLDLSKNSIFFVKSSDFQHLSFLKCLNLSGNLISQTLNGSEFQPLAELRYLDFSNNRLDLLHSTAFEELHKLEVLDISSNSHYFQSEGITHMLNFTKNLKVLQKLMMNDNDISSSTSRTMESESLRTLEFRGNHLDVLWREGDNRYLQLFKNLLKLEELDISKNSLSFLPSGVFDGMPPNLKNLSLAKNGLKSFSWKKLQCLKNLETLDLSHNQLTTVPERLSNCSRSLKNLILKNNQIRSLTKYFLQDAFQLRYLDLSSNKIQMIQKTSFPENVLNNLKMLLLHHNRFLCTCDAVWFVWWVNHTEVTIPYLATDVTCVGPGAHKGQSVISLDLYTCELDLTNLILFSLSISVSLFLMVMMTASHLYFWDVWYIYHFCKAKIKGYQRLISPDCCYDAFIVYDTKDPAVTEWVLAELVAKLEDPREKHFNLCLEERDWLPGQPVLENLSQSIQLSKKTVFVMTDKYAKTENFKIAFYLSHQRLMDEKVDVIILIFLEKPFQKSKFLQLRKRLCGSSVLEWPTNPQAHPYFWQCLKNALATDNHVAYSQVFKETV
Kind of assay: Human TLR7 reporter gene assay (TLR7/NF-κB/SEAPorter HEK293 cell line), Tests 1 and 21. Format: cell-based. An excerpt:
Human TLR7 Reporter Gene Assay
TLR7/NF-κB/SEAPorter™ HEK293 cell line (Imgenex Corporation) is a stably co-transfected cell line which expresses full-length human TLR7 and secretory alkaline phosphatase (SEAP) reporter gene under the transcriptional regulation of an NF-κB response element. The TLR7 expression of the cell line has been already tested by flow cytometry. Transfectants with stable expression were selected using the antibiotic blasticidin and Geneticin. TLR signaling leads to the translocation of NF-κB and the activation of the promoter results in expression of the SEAP gene. TLR7-specific activation was assessed by determining the level of SEAP produced following 24-hour incubation of the cells at 37° C. with each compound prepared in Examples and Reference examples in the presence of 0.1% (v/v) dimethylsulfoxide (DMSO). The human TLR7 activity for the present compound was assessed by human TLR7 reporter gene assay, and the results are shown in Tables 3 and 4 as the compound concentration which produced half of the maximal level of SEAP induction (EC50)
According to the method of Test 1, human TLR7 reporter gene assay was done with the following samples, and the result was shown in the table below.

The subject of assay [2] is HLA-A*02:01 transgenic mouse. Put plainly: Test 9: in vivo adjuvant activity, cocktail vaccine b, IFNγ ELISPOT. To be noted: added to cocktail vaccine b; Peptide SEQ ID No. 1 or SEQ ID No. 4; 0.4 nmol per body, twice; FIG. 6 and 7. As to the method:
Evaluation of In Vivo Adjuvant Activity in HLA-A*02:01 Transgenic Mouse
The in vivo adjuvant activity of the compounds prepared in Examples 8, 9, and 10 and the compound prepared in Reference example 12 was evaluated in the following procedure. To cocktail vaccine b comprising Compound of formula 4 prepared in Reference example 8 and Peptide SEQ ID No. 3 prepared in Reference example 3 with Montanide ISA51 VG was added the compound prepared in Example 8, 9, or 10, or the compound prepared in Reference example 12 to prepare each vaccine. The vaccine was administered to a HLA-A*02:01 transgenic mouse, and the adjuvant activity of each vaccine was evaluated by the method of testing antigen-specific CTL induction.
Specifically, Compound of formula 4 and Peptide SEQ ID No. 3 were dissolved in DMSO, and then diluted with water for injection to concentrations of Compound of formula 4 of 3 mg/mL and Peptide SEQ ID No. 3 of 2.25 mg/mL. The diluted peptide solution was mixed and emulsified with an equal volume of Montanide ISA 51 VG to prepare cocktail vaccine b. Cocktail vaccine b was injected to mice intradermally at the tail base area in an amount for administering 300 μg of Compound of formula 4 per body and 225 μg of Peptide SEQ ID No. 3 per body. Or, in the step of preparing cocktail vaccine b, the compound prepared in Example 8, 9, or 10, or the compound prepared in Reference example 12 was added to the diluted peptide solution to prepare a vaccine, and the prepared vaccine was injected to mice intradermally at the tail base area in an amount for administering 300 μg of Compound of formula 4 per body, 225 μg of Peptide SEQ ID No. 3 per body, and 0.4 nmol of the compound prepared in Example 8, 9, or 10, or the compound prepared in Reference example 12 per body. The administrations were done twice, which had one week interval. One week after the final administration, the mice were sacrificed with CO2 gas. Splenocytes were harvested from spleens removed from the mice. Like Test 4, Peptide (SEQ ID No. 1 or SEQ ID No. 4) was added to the splenocyte-containing ELISPOT plate at a final concentration of 10 μg/ml, and the plate was incubated overnight at 37° C. under an atmosphere of 5% CO2 to re-stimulate the peptide in vitro. Then, after removal of the supernatant from the wells, stained spots on the ELISPOT plate were counted.

Assay [3] deals with T2, mouse TLR7 (Mus musculus, UniProt P58681).
T2 construct: expresses full-length mouse TLR7 and secretory SEAP reporter gene; host or cells: HEK-Blue mTLR7 (HEK293-derived)
T2 sequence (P58681 27-1050): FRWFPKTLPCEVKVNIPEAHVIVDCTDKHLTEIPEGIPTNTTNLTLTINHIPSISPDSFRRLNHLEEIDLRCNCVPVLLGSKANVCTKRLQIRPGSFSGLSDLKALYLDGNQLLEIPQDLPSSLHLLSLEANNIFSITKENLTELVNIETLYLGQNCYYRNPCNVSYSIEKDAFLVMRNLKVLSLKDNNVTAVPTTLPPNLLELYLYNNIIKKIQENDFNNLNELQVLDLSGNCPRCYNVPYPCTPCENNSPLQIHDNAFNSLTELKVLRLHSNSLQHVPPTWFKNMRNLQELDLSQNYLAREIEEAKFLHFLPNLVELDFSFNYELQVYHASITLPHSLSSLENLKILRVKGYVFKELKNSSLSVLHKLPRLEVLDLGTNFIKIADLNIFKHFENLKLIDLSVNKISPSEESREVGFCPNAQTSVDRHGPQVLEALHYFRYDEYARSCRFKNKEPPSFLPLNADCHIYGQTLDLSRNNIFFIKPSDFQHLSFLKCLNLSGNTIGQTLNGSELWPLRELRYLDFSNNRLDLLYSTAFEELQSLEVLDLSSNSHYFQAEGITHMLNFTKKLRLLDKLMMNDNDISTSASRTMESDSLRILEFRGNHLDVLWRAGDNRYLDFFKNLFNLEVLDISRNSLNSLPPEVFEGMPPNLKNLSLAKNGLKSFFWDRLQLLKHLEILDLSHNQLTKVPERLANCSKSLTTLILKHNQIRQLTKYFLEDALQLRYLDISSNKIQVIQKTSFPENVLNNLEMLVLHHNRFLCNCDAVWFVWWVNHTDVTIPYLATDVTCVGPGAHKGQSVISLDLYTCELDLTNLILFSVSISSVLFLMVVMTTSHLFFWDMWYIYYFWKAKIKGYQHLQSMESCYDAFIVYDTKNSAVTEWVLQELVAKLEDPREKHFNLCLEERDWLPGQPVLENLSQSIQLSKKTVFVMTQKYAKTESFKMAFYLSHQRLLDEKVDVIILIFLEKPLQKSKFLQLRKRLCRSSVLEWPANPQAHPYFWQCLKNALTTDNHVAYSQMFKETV
Kind of assay: Mouse TLR7 reporter gene assay (HEK-Blue mTLR7 cell line), Test 2. Format: cell-based. To be noted: half of maximal SEAP induction, 20-24-hour incubation, 0.1% DMSO. An excerpt: Test 2 Mouse TLR7 Reporter Gene Assay
HEK-Blue™ mTLR7 cell line (Invivogen) is a stably co-transfected cell line which expresses full-length mouse TLR7 and secretory SEAP reporter gene under the transcriptional regulation of an NF-κB response element. The TLR7 expression of the cell line has been already tested by RT-PCR. Transfectants with stable expression were selected using the antibiotic blasticidin and Zeocin. TLR signaling leads to the translocation of NF-κB and the activation of the promoter results in expression of the SEAP gene. TLR7-specific activation was assessed by determining the level of SEAP produced following 20-24-hour incubation of the cells at 37° C. with each compound prepared in Examples and Reference examples in the presence of 0.1% (v/v) DMSO. The mouse TLR7 activity for the present compound was assessed by mouse TLR7 reporter gene assay, and the results are shown in Tables 5 and 6 as the compound concentration which produced half of the maximal level of SEAP induction (EC50).
In general terms: In a reporter assay the amount or activity of a reporter protein is the signal.

[4] abbreviates: Test 21, according to the method of Test 1, read-out: human EC50.
Where [5] appears, read: Test 1, TLR7/NF-κB/SEAPorter HEK293 cell line, half of maximal SEAP induction, 24-hour incubation, 0.1% DMSO, read-out: EC50.

Broadly, the EC50 is the concentration needed to bring the measured effect to its halfway point. Consider `CCCCCNc1nc(N)nc(C)c1Cc1ccc(CN(C)CCOCCOCCOCCOCCOCCOCCOCCOCCOCCO)cc1OC` [Example 8, 1-(4-{[2-amino-4-methyl-6-(pentylamino)pyrimidin-5-yl]methyl}-3-methoxyphenyl)-2-methyl-5,8,11,14,17,20,23,26,29-nonaoxa-2-azahentriacontan-31-ol], for which the EC50 in assay [1] (setting [4]) is 388 nM. In addition, in assay [2], the “CTL counts responsive to the peptide compared with Reference example 12” value is listed as “more” and the “CTL counts responsive to the peptide compared with adding no compound” value is “more”.
For the compound `CCCCCNc1nc(N)nc(C)c1Cc1cc(CN(C)CCOCCOCCOCCOCCO)ccc1OC` [Example 3, 1-(3-{[2-amino-4-methyl-6-(pentylamino)pyrimidin-5-yl]methyl}-4-methoxyphenyl)-2-methyl-5,8,11,14-tetraoxa-2-azahexadecan-16-ol-trifluoroacetate], the EC50 in assay [1] (setting [4]) was 637 nM.
On to `CCC[C@@H](CCO)Nc1nc(N)nc(C)c1Cc1ccc(CNC)cc1OC` [compound 11, (3S)-3-{[2-amino-5-({2-methoxy-4-[(methylamino)methyl]phenyl}methyl)-6-methylpyrimidin-4-yl]amino}hexan-1-ol, reference compound], for which the EC50 amounted to 2 nM in assay [3] and 8 nM in assay [1] (setting [5]).
In the case of `CCCCCNc1nc(N)nc(C)c1Cc1ccc(CN(C)CCOCCOCCOCCOCCOCCOCCOCCOCCOCCOCCOCCOCCOCCOCCOCCOCCOCCOCCOCCOCCOCCOCCOCCOCCOCCOCCOCCOCCOCCOCCOCCOCCOCCOCCOCCO)cc1OC` [Example 10, 1-(4-{[2-amino-4-methyl-6-(pentylamino)pyrimidin-5-yl]methyl}-3-methoxyphenyl)-2-methyl-5,8,11,14,17,20,23,26,29,32,35,38,41,44,47,50,53,56,59,62,65,68,71,74,77,80,83,86,89,92,95,98,101,104,107-pentatriacontaoxa-2-azanonahectan-109-ol], the EC50 in assay [1] (setting [4]) is 3810 nM.
On to `CCCCCNc1nc(N)nc(C)c1Cc1ccc(CN(C)CCOCCOCCOCCOCCOCCOCCOCCOCCOCCOCCOCCOCCOCCOCCOCCOCCOCCOCCOCCOCCOCCOCCOCCO)cc1OC` [Example 9, 1-(4-{[2-amino-4-methyl-6-(pentylamino)pyrimidin-5-yl]methyl}-3-methoxyphenyl)-2-methyl-5,8,11,14,17,20,23,26,29,32,35,38,41,44,47,50,53,56,59,62,65,68,71-tricosaoxa-2-azatriheptacontan-73-ol], for which the EC50 in assay [1] (setting [4]) is 3990 nM. For the same compound, in assay [2], the “CTL counts responsive to the peptide compared with Reference example 12” value is reported as “more” and the “CTL counts responsive to the peptide compared with adding no compound” value was “more”.
As to `CCC[C@@H](CCO)Nc1nc(N)nc(C)c1Cc1ccc(CN(C)CCOCCOCCOCCOCCO)cc1OC` [Example 2, 1-{4-[(2-amino-4-{[(3S)-1-hydroxyhexan-3-yl]amino}-6-methylpyrimidin-5-yl)methyl]-3-methoxyphenyl}-2-methyl-5,8,11,14-tetraoxa-2-azahexadecan-16-ol-trifluoroacetate], the results for the EC50 in assay [3] and in assay [1] (setting [5]) were 21 nM and 94 nM, respectively.
